# In PMC11748363, “Antimicrobial and Antiproliferative Properties of 2‐Phenyl‐N‐(Pyridin‐2‐yl)acetamides” (Chemical Biology & Drug Design, 2025):
# Read-outs that look alike come from different tables or passages of the source.
# Key:
# [1] = tested on: Mycobacterium tuberculosis H37Ra; test: Antimycobacterial microdilution broth MIC (resazurin), Mtb H37Ra; assay type: cell-based; settings: Mycobacterium tuberculosis, H37RA
# [2] = tested on: Mycolicibacterium smegmatis DSM 43465; test: Antimycobacterial microdilution broth MIC (resazurin), M. smegmatis; assay type: cell-based; settings: DSM43465, read-out: MIC M. smegmatis
# [3] = tested on: Mycolicibacterium aurum DSM 43999; test: Antimycobacterial microdilution broth MIC (resazurin), M. aurum; assay type: cell-based; settings: DSM43999, read-out: MIC M. aurum
# HepG2 cell line = test: Cytotoxicity CellTiter 96, HepG2; assay type: cell-based, human; settings: 24 h incubation, ^c compound precipitated in the testing medium, ^d over the limit of tested concentrations
# [4] = tested on: Staphylococcus aureus CCM 4223, ATCC 29213; test: Antibacterial microdilution broth MIC, SA; assay type: cell-based
# [5] = tested on: Staphylococcus aureus subsp. aureus CCM 4750, ATCC 43300 (MRSA); test: Antibacterial microdilution broth MIC, MRSA; assay type: cell-based
# [6] = tested on: Staphylococcus epidermidis CCM 4418, ATCC 12228; test: Antibacterial microdilution broth MIC, SE; assay type: cell-based
# [7] = tested on: Enterococcus faecalis CCM 4224, ATCC 29212; test: Antibacterial microdilution broth MIC, EF; assay type: cell-based
# [8] = tested on: Escherichia coli CCM 3954, ATCC 25922; test: Antibacterial microdilution broth MIC, EC; assay type: cell-based
# [9] = tested on: Acinetobacter baumannii DSM 30007, ATCC 19606; test: Antibacterial microdilution broth MIC, ACI; assay type: cell-based
# [10] = tested on: Pseudomonas aeruginosa CCM 3955, ATCC 27853; test: Antibacterial microdilution broth MIC, PA; assay type: cell-based
# [11] = tested on: Candida albicans CCM 8320, ATCC 24433; test: Antifungal microdilution broth MIC, CA
# [12] = tested on: Candida krusei CCM 8271, ATCC 6258; test: Antifungal microdilution broth MIC, CK; settings: Pichia kudriavzevii
# [13] = tested on: Candida parapsilosis CCM 8260, ATCC 22019; test: Antifungal microdilution broth MIC, CP; settings: Lodderomyces parapsilosis
# [14] = tested on: Candida tropicalis CCM 8264, ATCC 750; test: Antifungal microdilution broth MIC, CT
# [15] = tested on: Aspergillus fumigatus ATCC 204305; test: Antifungal microdilution broth MIC, AF
# [16] = tested on: Lichtheimia corymbifera CCM 8077; test: Antifungal microdilution broth MIC, LC
# [17] = tested on: Trichophyton interdigitale CCM 8377, ATCC 9533; test: Antifungal microdilution broth MIC, TI; settings: Trichophyton interdigitale
# [18] = tested on: Aspergillus flavus CCM 8363; test: Antifungal microdilution broth MIC, AFla
# [19] = tested on: Klebsiella pneumoniae CCM 4415, ATCC 10031; test: Antibacterial microdilution broth MIC, KP
# [20] = Staphylococcus aureus, 24 h; read-out: MIC SA 24h
# [21] = Staphylococcus aureus, 48 h; read-out: MIC SA 48h
# [22] = Staphylococcus aureus, 24 h; read-out: MIC MRSA 24h
# [23] = Staphylococcus aureus, 48 h; read-out: MIC MRSA 48h
# [24] = ATCC204305, 24 h, read-out: MIC AF 24h
# [25] = ATCC204305, 48 h, read-out: MIC AF 48h
# [26] = CCM8077, 24 h, read-out: MIC LC 24h
# [27] = CCM8077, 48 h, read-out: MIC LC 48h
# [28] = CCM8363, 24 h, read-out: MIC AFla 24h
# [29] = CCM8363, 48 h, read-out: MIC AFla 48h
# [30] = Calculated from MIC (μg/mL), read-out: MIC Mtb H37Ra
SMILES,MIC [2],MIC [3],"IC50 (HepG2 cell line; Homo sapiens, HepG2, 24 h)","MIC ([6]; 24 h, read-out: MIC SE 24h)","MIC ([6]; 48 h, read-out: MIC SE 48h)","MIC ([7]; 24 h, read-out: MIC EF 24h)","MIC ([7]; 48 h, read-out: MIC EF 48h)","MIC ([8]; 24 h, read-out: MIC EC 24h)","MIC ([8]; 48 h, read-out: MIC EC 48h)","MIC ([9]; 24 h, read-out: MIC ACI 24h)","MIC ([9]; 48 h, read-out: MIC ACI 48h)","MIC ([10]; 24 h, read-out: MIC PA 24h)","MIC ([10]; 48 h, read-out: MIC PA 48h)","MIC ([11]; 24 h, read-out: MIC CA 24h)","MIC ([11]; 48 h, read-out: MIC CA 48h)","MIC ([12]; 24 h, read-out: MIC CK 24h)","MIC ([12]; 48 h, read-out: MIC CK 48h)","MIC ([13]; 24 h, read-out: MIC CP 24h)","MIC ([13]; 48 h, read-out: MIC CP 48h)","MIC ([14]; 24 h, read-out: MIC CT 24h)",other results
O=C(Cc1ccccc1)Nc1ccccn1 [Compound 1],62.5 µg/mL,250 µg/mL,> 500 µM,> 500 µM,> 500 µM,> 500 µM,> 500 µM,> 500 µM,> 500 µM,> 500 µM,> 500 µM,> 500 µM,> 500 µM,500 µM,500 µM,500 µM,500 µM,500 µM,500 µM,500 µM,"MIC ([1]; read-out: MIC Mtb H37Ra (μM)): 147 µM; MIC ([1]; read-out: MIC Mtb H37Ra (μg/mL)): 31.2 µg/mL; IC50 (HepG2 cell line): > 1000 µM; MIC [4, 20]: > 500 µM; MIC [4, 21]: > 500 µM; MIC [5, 22]: > 500 µM; MIC [5, 23]: > 500 µM; MIC ([14]; 48 h, read-out: MIC CT 48h): 500 µM; MIC [15, 24]: > 500 µM; MIC [15, 25]: > 500 µM; MIC [16, 26]: > 500 µM; MIC [16, 27]: > 500 µM; MIC ([17]; 72 h, read-out: MIC TI 72h): 500 µM; MIC ([17]; 120 h, read-out: MIC TI 120h): 500 µM; MIC [18, 28]: > 500 µM; MIC [18, 29]: > 500 µM; MIC KP 24h [19]: > 500 µM; MIC KP 48h [19]: > 500 µM"
"COc1cccc(CC(=O)Nc2ccccn2)c1 [Compound 7, 2-(3-methoxyphenyl)-N-(pyridin-2-yl)acetamide]",250 µg/mL,250 µg/mL,> 500 µM,> 125 µM,> 125 µM,> 125 µM,> 125 µM,> 125 µM,> 125 µM,> 125 µM,> 125 µM,> 125 µM,> 125 µM,> 125 µM,> 125 µM,> 125 µM,> 125 µM,> 125 µM,> 125 µM,> 125 µM,"MIC [1, 30]: 516 µM; MIC ([1]; read-out: MIC Mtb H37Ra): 125 µg/mL; MIC ([4]; Staphylococcus aureus, 24 h, read-out: MIC SA 24h): 125 µM; MIC ([4]; Staphylococcus aureus, 48 h, read-out: MIC SA 48h): 125 µM; MIC ([5]; Staphylococcus aureus, 24 h, read-out: MIC MRSA 24h): > 125 µM; MIC ([5]; Staphylococcus aureus, 48 h, read-out: MIC MRSA 48h): > 125 µM; MIC ([14]; 48 h, read-out: MIC CT 48h): > 125 µM; MIC [15, 24]: > 125 µM; MIC [15, 25]: > 125 µM; MIC [16, 26]: > 125 µM; MIC [16, 27]: > 125 µM; MIC ([17]; 72 h, read-out: MIC TI 72h): > 125 µM; MIC ([17]; 120 h, read-out: MIC TI 120h): > 125 µM; MIC [18, 28]: > 125 µM; MIC [18, 29]: > 125 µM; MIC KP 24h [19]: > 125 µM; MIC KP 48h [19]: > 125 µM"
"COc1cccc(CC(=O)Nc2cccc(Cl)n2)c1 [Compound 9, 2-(3-methoxyphenyl)-N-(6-chloropyridin-2-yl)acetamide]",125 µg/mL,> 500 µg/mL,638 µM,> 500 µM,> 500 µM,> 500 µM,> 500 µM,> 500 µM,> 500 µM,> 500 µM,> 500 µM,> 500 µM,> 500 µM,500 µM,500 µM,500 µM,500 µM,500 µM,500 µM,500 µM,"MIC [1, 30]: 900 µM; MIC ([1]; read-out: MIC Mtb H37Ra): 250 µg/mL; MIC [4, 20]: > 500 µM; MIC [4, 21]: > 500 µM; MIC [5, 22]: > 500 µM; MIC [5, 23]: > 500 µM; MIC ([14]; 48 h, read-out: MIC CT 48h): 500 µM; MIC [15, 24]: 500 µM; MIC [15, 25]: > 500 µM; MIC [16, 26]: 500 µM; MIC [16, 27]: > 500 µM; MIC ([17]; 72 h, read-out: MIC TI 72h): 500 µM; MIC ([17]; 120 h, read-out: MIC TI 120h): > 500 µM; MIC [18, 28]: 500 µM; MIC [18, 29]: > 500 µM; MIC KP 24h [19]: > 500 µM; MIC KP 48h [19]: > 500 µM"
